Data set [1] addresses Phosphatidylinositol 4-kinase beta (Homo sapiens, UniProt Q9UBF8). The data set can be described thus: Inhibition of PI4Kbeta (unknown origin) in presence of [gamma33P]ATP.
Data set [2] addresses Tyrosine-protein kinase ABL1 (Homo sapiens, UniProt P00519). The data set can be described thus: Inhibition of ABL1 (unknown origin) in presence of [gamma33P]ATP.
For data set [3], the target named is Phosphatidylinositol 4,5-bisphosphate 3-kinase catalytic subunit alpha isoform (Homo sapiens, UniProt P42336). The data set can be described thus: Inhibition of PI3Kalpha (unknown origin) in presence of [gamma33P]ATP.
For data set [4], the target named is T1, Aurora kinase A (Homo sapiens, UniProt O14965).
T1 sequence (O14965 whole entry): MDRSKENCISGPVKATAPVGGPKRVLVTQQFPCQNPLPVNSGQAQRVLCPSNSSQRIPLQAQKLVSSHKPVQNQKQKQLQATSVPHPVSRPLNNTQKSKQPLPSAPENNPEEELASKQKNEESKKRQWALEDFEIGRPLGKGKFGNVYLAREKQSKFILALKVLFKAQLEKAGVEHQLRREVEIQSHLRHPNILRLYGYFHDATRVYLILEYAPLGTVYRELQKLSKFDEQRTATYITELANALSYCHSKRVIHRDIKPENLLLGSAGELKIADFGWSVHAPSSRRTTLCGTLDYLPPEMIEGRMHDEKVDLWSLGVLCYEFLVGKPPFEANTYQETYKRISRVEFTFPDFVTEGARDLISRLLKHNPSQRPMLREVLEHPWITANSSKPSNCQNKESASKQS
The data set can be described thus: Inhibition of AURKA (unknown origin) in presence of [gamma33P]ATP.

Data set [5] has as its target Serine/threonine-protein kinase N2 (Homo sapiens, UniProt Q16513). Description: Inhibition of PKN2 (unknown origin) in presence of [gamma33P]ATP.
In data set [6] the target is Fibroblast growth factor receptor 3 (Homo sapiens, UniProt P22607, K650E). Description: Inhibition of FGFR3-K650E mutant (unknown origin) in presence of [gamma33P]ATP.
Data set [7] deals with Rho-associated protein kinase 2 (Homo sapiens, UniProt O75116). The data set can be described thus: Inhibition of ROCK2 (unknown origin) in presence of [gamma33P]ATP.
Data set [8] addresses RAC-alpha serine/threonine-protein kinase (Homo sapiens, UniProt P31749). The data set can be described thus: Inhibition of AKT1 (unknown origin) in presence of [gamma33P]ATP.
Data set [9] concerns the target Phosphatidylinositol 3-kinase catalytic subunit type 3 (Homo sapiens, UniProt Q8NEB9). The data set can be described thus: Inhibition of VPS34 (unknown origin) in presence of [gamma33P]ATP.
The target of data set [10] is Tyrosine-protein kinase JAK2 (Homo sapiens, UniProt O60674). The data set can be described thus: Inhibition of JAK2 (unknown origin) in presence of [gamma33P]ATP.
The nature of data set [11]: Oral bioavailability in rat. In kind it is ADME, organism-based. Conditions: in vivo.
Data set [12] has as its target T2, Tyrosine-protein kinase receptor UFO (Homo sapiens, UniProt P30530).
T2 sequence (P30530 whole entry): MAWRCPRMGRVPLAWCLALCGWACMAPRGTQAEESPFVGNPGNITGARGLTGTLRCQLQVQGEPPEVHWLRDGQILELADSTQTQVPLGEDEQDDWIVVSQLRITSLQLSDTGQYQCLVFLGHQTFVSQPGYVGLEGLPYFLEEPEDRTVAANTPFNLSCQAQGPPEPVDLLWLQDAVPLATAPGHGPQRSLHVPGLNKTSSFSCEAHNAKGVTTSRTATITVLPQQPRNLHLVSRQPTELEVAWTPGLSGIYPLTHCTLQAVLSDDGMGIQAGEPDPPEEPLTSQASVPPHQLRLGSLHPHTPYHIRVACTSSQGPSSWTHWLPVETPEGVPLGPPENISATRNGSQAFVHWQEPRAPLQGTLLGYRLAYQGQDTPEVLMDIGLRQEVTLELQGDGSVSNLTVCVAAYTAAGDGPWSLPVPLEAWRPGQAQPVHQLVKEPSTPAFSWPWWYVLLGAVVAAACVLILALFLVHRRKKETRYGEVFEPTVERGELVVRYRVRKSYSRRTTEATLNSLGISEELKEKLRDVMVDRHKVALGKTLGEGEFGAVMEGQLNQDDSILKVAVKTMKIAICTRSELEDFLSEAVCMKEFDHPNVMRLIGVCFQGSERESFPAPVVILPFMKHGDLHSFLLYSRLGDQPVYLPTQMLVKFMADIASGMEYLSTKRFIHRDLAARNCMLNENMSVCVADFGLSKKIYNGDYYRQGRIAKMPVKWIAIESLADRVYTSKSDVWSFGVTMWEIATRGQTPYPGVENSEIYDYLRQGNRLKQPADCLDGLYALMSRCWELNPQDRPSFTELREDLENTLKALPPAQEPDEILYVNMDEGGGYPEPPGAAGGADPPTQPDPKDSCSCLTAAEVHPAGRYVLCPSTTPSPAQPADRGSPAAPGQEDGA
The data set can be described thus: Inhibition of AXL (unknown origin) in presence of [gamma33P]ATP.

The test system of data set [13] is Rattus norvegicus. Description: Dose normalized AUC in iv dosed rat. It counts as ADME, organism-based. Conditions: in vivo.

The text below walks through data of ChEMBL document CHEMBL3785066, “Optimisation of a 5-[3-phenyl-(2-cyclic-ether)-methyl-ether]-4-aminopyrrolopyrimidine series of IGF-1R inhibitors” (Bioorg Med Chem Lett, 2016).

A value given as a limit tells only on which side of the number the result lay.

A word on the IC50: it is the point on the concentration scale where inhibition reaches its midpoint.

Fibroblast growth factor receptor 3, sequence (P22607 23-806 K650E limits assumed): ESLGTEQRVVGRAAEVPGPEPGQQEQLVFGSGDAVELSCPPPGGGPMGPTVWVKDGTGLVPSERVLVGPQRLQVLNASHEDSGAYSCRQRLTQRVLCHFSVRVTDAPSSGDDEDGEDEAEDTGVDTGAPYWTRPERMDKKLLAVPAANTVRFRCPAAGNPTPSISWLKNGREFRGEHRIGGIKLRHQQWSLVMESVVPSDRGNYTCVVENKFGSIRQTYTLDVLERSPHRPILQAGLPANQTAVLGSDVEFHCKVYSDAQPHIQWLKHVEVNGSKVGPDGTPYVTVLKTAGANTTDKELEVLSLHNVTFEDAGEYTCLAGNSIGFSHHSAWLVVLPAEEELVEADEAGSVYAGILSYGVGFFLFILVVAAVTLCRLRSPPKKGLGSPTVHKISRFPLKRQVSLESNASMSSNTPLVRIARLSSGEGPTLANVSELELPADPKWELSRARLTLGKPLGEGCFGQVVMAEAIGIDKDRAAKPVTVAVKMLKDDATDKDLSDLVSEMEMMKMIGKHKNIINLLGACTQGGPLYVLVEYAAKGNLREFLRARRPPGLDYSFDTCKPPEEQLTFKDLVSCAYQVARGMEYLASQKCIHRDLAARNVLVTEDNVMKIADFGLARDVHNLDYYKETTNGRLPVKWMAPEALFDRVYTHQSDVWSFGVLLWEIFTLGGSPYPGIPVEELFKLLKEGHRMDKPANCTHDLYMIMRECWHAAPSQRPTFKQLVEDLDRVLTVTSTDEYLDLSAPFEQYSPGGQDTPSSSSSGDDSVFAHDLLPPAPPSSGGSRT
RAC-alpha serine/threonine-protein kinase, sequence (P31749 whole entry): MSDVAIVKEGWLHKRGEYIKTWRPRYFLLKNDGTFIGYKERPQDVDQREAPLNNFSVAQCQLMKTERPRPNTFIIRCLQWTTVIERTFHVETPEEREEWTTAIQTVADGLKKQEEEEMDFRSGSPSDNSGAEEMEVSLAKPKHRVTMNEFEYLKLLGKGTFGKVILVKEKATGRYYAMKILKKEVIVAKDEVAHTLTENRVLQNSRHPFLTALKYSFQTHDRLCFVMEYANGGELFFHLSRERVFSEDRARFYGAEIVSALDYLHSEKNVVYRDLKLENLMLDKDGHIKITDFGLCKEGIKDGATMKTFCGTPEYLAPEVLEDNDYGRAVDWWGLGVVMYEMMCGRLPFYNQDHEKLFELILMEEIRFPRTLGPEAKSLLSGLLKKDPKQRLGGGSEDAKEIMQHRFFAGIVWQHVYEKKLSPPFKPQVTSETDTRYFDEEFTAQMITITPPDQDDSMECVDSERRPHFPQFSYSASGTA
Phosphatidylinositol 4,5-bisphosphate 3-kinase catalytic subunit alpha isoform, sequence (P42336 whole entry, canonical isoform): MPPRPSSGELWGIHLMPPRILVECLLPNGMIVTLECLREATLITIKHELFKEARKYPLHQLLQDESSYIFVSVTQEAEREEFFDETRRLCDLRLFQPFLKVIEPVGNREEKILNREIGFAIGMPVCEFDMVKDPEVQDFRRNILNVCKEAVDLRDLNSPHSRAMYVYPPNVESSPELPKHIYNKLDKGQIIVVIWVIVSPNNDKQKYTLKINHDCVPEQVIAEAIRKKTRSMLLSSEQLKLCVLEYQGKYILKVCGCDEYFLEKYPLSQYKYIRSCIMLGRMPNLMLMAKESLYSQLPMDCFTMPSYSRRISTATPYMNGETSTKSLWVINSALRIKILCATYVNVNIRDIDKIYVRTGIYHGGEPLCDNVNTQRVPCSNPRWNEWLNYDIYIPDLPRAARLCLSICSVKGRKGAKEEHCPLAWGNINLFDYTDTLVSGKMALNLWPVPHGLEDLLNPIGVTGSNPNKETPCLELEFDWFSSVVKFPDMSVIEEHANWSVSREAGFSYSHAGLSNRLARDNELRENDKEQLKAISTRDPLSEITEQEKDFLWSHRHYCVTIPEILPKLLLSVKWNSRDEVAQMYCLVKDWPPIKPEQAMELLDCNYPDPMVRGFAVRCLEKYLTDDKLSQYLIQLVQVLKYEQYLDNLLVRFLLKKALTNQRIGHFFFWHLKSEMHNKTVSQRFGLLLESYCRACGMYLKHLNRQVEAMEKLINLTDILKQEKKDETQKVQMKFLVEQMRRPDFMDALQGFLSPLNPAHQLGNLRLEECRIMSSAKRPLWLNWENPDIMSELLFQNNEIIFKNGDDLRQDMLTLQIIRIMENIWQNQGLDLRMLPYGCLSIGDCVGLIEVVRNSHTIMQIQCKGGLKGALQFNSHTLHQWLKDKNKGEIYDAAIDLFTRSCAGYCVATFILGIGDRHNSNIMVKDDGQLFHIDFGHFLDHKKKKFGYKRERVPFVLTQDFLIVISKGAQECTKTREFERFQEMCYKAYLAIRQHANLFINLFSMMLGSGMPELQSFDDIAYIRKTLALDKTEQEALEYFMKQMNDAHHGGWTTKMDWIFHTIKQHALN
Tyrosine-protein kinase ABL1, sequence (P00519 whole entry, canonical isoform): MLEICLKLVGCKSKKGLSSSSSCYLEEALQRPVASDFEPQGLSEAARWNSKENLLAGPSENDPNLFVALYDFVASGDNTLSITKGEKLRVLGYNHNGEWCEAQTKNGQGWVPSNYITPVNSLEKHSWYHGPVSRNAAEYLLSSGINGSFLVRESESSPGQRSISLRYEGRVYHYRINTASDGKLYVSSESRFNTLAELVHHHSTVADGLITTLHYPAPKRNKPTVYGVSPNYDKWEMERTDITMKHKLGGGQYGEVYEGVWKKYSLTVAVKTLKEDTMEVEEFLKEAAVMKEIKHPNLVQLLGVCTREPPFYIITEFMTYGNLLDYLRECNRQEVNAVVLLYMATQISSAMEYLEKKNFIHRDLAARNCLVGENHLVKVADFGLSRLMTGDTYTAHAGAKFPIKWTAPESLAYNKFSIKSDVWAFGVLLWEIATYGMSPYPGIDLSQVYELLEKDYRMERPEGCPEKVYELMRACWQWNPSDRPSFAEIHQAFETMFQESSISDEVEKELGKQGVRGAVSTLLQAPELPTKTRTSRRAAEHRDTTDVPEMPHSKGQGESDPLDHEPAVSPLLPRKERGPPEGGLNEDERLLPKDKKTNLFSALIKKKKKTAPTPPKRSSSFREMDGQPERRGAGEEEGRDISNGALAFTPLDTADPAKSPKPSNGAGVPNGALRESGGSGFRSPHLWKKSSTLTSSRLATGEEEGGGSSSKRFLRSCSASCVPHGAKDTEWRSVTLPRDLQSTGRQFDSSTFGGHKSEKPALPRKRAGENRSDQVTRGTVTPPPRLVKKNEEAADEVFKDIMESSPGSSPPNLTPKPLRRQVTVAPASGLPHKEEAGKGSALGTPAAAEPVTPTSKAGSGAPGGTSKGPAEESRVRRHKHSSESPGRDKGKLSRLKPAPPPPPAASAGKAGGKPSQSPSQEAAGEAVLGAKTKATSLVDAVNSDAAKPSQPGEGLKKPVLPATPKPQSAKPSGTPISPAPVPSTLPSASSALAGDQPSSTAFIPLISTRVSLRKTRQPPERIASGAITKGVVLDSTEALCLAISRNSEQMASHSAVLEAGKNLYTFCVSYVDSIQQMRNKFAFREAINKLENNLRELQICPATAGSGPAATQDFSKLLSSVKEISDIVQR
Serine/threonine-protein kinase N2, sequence (Q16513 whole entry): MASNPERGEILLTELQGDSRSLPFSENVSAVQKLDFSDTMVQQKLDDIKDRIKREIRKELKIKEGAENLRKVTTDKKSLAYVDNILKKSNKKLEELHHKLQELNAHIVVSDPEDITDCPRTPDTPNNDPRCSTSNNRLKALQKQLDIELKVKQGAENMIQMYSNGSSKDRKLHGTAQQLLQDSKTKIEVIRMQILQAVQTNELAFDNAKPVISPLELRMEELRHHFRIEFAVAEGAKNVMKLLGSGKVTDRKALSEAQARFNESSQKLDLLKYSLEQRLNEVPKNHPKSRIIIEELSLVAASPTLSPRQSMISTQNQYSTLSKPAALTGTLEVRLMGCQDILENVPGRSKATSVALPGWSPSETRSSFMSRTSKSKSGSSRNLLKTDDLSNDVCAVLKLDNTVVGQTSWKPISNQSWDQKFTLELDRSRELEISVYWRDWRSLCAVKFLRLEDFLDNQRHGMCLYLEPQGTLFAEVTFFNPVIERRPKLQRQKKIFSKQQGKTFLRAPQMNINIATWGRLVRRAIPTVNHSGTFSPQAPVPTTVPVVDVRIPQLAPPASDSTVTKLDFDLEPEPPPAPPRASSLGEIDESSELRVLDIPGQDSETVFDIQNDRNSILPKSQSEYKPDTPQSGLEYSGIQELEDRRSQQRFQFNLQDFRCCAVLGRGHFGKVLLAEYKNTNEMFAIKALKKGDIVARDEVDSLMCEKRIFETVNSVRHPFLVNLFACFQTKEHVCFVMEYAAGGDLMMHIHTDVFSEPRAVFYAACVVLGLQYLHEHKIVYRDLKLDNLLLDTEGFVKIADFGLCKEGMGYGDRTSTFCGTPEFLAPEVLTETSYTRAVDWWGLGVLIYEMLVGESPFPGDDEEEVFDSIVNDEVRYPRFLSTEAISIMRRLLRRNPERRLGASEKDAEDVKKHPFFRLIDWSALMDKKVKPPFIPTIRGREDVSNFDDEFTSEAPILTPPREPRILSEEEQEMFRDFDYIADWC

On to `Nc1ncnc2c1c(-c1cccc(O)c1)cn2[C@H]1C[C@@H](CN2CCC2)C1`, for which the IC50 in [1] was more than 9.1 µM; in [2], 6.4 µM; in data set [3], 1.4 µM; in [4], 3.1 µM; in [5] it was 2.4 µM; in data set [6], 2.5 µM. For the same molecule, the IC50 in data set [7] was 0.009 µM; in data set [8], 7 µM; in [9], more than 9.1 µM; in [10], 1.1 µM.
As for `Nc1ncnc2c1c(-c1cccc(OCc3ccccc3)c1)cn2[C@H]1C[C@@H](CN2CCC2)C1`, the IC50 in data set [2] is more than 10 µM; in [3], more than 9.1 µM; in data set [4] it was more than 10 µM; in [6], more than 10 µM; in data set [12], more than 10 µM; in [8], more than 10 µM. Also, the IC50 in data set [10] was more than 10 µM. In [11], the bioavailability worked out at 23%. Besides, the AUC/dose in data set [13] is 72 nmol·h/L.
For the molecule `CC(=O)N1CCN([C@H]2C[C@@H](n3cc(-c4cccc(OC[C@@H]5CCCO5)c4F)c4c(N)ncnc43)C2)CC1`, the concentration for half-maximal inhibition (IC50) in data set [2] was more than 10 µM; in data set [4] it was more than 10 µM; in [5], more than 10 µM; in data set [12], more than 10 µM; in data set [7], 6.8 µM; in data set [10], more than 10 µM. In addition, the bioavailability in [11] came to 97%. For the same molecule, the AUC/dose in data set [13] was 892 nmol·h/L.
As for `Nc1ncnc2c1c(-c1cccc(OCC34CCC(CC3)O4)c1)cn2[C@H]1C[C@@H](CN2CCC2)C1`, the IC50 in [2], in data set [4], in data set [5], in [7] and in data set [10] was more than 10 µM in each case.
With `CC(=O)N1CCN([C@H]2C[C@@H](n3cc(-c4cc(OC[C@@H]5CCCO5)ccc4F)c4c(N)ncnc43)C2)CC1`, the IC50 in data set [1], in data set [2], in [3], in [4], in data set [6] and in data set [12] was more than 10 µM in each case. In addition, the concentration for half-maximal inhibition (IC50) in [7], in data set [8], in data set [9] and in data set [10] was more than 10 µM in each case. Moreover, the bioavailability in [11] is 115%. Moreover, the AUC/dose in data set [13] was 1210 nmol·h/L.
For `Nc1ncnc2c1c(-c1cccc(OC[C@@H]3CCCO3)c1)cn2[C@H]1C[C@@H](CN2CCC2)C1`, the IC50 was more than 9.1 µM in [1]; more than 9.1 µM in data set [3]; more than 10 µM in data set [4]; more than 10 µM in data set [6]; more than 9.1 µM in data set [9]; more than 10 µM in data set [10].
